Test results from paper PMC6629088, “Substituted anthraquinones represent a potential scaffold for DNA methyltransferase 1-specific inhibitors” (PLoS ONE, 2019).

What was measured:
Format in all cases: biochemical
[1] = target: T1, DNA methyltransferase 1 (RFTS(-) DNMT1) (Homo sapiens, UniProt P26358); experiment: endonuclease-coupled DNA methylation kinetics (Ki); IC50 […]; supported by DSF (+[…] °C), FP DNA competition and detergent test
T1 construct: RFTS(-) DNMT1 (amino acids 621–1616)

DNMT3a = target: T2, DNMT3a (Homo sapiens, UniProt Q9Y6K1); experiment: endonuclease-coupled DNA methylation assay, single concentration […] ([…] activity remaining); conditions: read-out: DNMT3a catalytic domain
T2 construct: C-terminal catalytic domain of DNMT3a (amino acids 611–912)
T2 sequence (Q9Y6K1 611-912): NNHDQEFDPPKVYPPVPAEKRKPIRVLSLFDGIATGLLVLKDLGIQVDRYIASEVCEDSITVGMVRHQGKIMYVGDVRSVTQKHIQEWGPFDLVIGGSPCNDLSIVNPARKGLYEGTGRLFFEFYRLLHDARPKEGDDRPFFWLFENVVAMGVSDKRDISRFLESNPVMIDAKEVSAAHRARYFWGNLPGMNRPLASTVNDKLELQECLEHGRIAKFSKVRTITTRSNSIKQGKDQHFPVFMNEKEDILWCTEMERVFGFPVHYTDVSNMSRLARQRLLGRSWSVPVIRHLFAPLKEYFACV

[2] = target: T1, DNA methyltransferase 1 (RFTS(-) DNMT1); experiment: endonuclease-coupled DNA methylation assay (IC50); supported by DSF (+[…] °C), FP DNA competition and detergent test

T1 sequence (P26358 621-1616): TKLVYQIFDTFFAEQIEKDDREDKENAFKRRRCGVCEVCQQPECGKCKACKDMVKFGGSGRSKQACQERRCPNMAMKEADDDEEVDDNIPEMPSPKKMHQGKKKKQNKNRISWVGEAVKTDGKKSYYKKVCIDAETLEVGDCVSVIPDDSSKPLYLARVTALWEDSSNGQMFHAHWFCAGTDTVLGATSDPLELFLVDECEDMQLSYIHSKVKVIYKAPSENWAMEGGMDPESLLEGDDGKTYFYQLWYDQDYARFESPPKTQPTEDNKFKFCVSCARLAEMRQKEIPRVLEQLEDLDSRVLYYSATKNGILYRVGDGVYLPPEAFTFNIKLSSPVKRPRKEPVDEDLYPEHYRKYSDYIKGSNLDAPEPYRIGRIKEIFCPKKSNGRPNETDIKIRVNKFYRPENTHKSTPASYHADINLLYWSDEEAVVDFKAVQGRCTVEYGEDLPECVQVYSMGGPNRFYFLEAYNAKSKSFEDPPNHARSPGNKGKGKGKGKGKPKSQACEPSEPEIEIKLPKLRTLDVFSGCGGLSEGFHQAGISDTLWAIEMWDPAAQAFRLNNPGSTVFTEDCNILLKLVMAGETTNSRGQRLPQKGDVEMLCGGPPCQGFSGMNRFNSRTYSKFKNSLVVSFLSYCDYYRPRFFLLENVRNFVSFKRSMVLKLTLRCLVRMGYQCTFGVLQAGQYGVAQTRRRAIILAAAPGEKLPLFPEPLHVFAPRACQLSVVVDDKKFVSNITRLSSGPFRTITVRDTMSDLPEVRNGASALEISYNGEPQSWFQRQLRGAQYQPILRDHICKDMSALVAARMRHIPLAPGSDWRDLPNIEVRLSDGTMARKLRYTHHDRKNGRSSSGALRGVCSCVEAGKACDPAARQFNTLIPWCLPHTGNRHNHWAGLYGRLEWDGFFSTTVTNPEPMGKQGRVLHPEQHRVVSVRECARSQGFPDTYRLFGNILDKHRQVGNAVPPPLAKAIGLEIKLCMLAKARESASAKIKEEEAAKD

SMILES: COc1cc(C(=O)Nc2ccc3c(c2)C(=O)c2ccccc2C3=O)cc(OC)c1OC [A13]
- Ki [1]: 13 ± 3 µM

SMILES: CC(=O)NCCc1ccc(O)c(-c2c(O)c(O)c3c(c2O)C(=O)c2c(cc(O)c(C(=O)O)c2C(=O)O)C3=O)c1 [LCA, laccaic acid A]
- activity at 100 µM (DNMT3a): 32 ± 1%

SMILES: Cc1ccc(NC(=O)c2ccc3c(c2O)C(=O)c2ccccc2C3=O)cc1 [A11]
- IC50 [2]: 59 ± 10 µM
